Measurements: DBAASP
Converted amounts (≈) assume the structure as drawn. “And” between values parts separate entries of the source, which are not always exact repeats. Equal entries are not always repeated.

Assays:
Assay in all cases: ≥ marks a high value that may be exact or a test limit, other limits are often not marked, values filed in µg/mL are converted to µM
[1] = test system: Klebsiella pneumoniae ATCC 10031
[2] = test system: Escherichia coli DH5alpha
[3] = test system: Salmonella enterica subsp. enterica serovar Typhimurium ATCC 14028
[4] = test system: Enterococcus faecalis ATCC 29212
[5] = test system: Klebsiella pneumoniae ATCC 13883
Escherichia coli UB1005 = test system: Escherichia coli UB1005
[6] = test system: Staphylococcus epidermidis ATCC 12228
[7] = test system: Staphylococcus aureus ATCC 25923
[8] = test system: Staphylococcus aureus ATCC 29213
[9] = test system: Escherichia coli ATCC 25922
[10] = test system: Salmonella enterica subsp. enterica serovar Typhimurium C77-31
Bacillus subtilis 168 = test system: Bacillus subtilis 168
[11] = test system: Candida albicans ATCC 90028
[12] = test system: Klebsiella pneumoniae ATCC 700603
[13] = test system: Pseudomonas aeruginosa ATCC 27853
[14] = test system: Escherichia coli ATCC 25726
[15] = test system: Staphylococcus aureus ATCC 43300
Klebsiella pneumoniae = test system: Klebsiella pneumoniae
Acinetobacter baumannii = test system: Acinetobacter baumannii

Compound	MIC [2]	MIC [3]	MIC (Escherichia coli UB1005)	MIC [6]	MIC [7]	MIC [10]	other results
CC[C@H](C)[C@@H]1NC(=O)[C@H](CCCCN)NC(=O)[C@@H](NC(=O)[C@@H](NC(=O)[C@@H](NC(=O)[C@@H](NC(=O)[C@@H]2CCCN2C(=O)[C@H](CC(C)C)NC(=O)[C@H](Cc2ccccc2)NC(=O)[C@H](CC(N)=O)NC(=O)[C@H](C)NC(=O)[C@H](C)NC(=O)[C@H](CC(C)C)NC(=O)CNC(=O)[C@H](C)NC(=O)[C@@H](N)Cc2ccccc2)[C@@H](C)O)[C@@H](C)CC)[C@@H](C)CC)CSSC[C@@H](C(=O)O)NC(=O)[C@H](CCCCN)NC(=O)[C@H](Cc2ccc(O)cc2)NC(=O)[C@H](CO)NC1=O [FAGLAANFLPTIICKISYKC]	≥ 46 µM	> 46 µM					MIC [1]: ≥ 46 µM
CC(C)[C@H](NC(=O)[C@H](CCCCN)NC(=O)[C@H](CCCCN)NC(=O)[C@@H](NC(=O)[C@@H](NC(=O)[C@H](CCCCN)NC(=O)[C@H](CCCCN)NC(=O)[C@@H](NC(=O)[C@@H](NC(=O)[C@H](CCCCN)NC(=O)[C@H](CCCCN)NC(=O)[C@@H](NC(=O)[C@@H](NC(=O)CN)C(C)C)C(C)C)C(C)C)C(C)C)C(C)C)C(C)C)C(N)=O [GVVKKVVKKVVKKV]	≥ 125 µM						MIC (Bacillus subtilis 168): ≥ 65 µM
CC[C@H](C)[C@H](N)C(=O)N[C@@H](CCCCN)C(=O)N[C@H](C(=O)N1CCC[C@H]1C(=O)N[C@@H](C)C(=O)N[C@@H](Cc1ccccc1)C(=O)N[C@H](C(=O)N[C@@H](CCCCN)C(=O)N[C@@H](CC(=O)O)C(=O)N[C@H](C(=O)N[C@@H](CC(C)C)C(=O)N[C@@H](CCCCN)C(=O)N[C@@H](CCCCN)C(=O)N[C@H](C(=O)N[C@@H](C)C(=O)N[C@@H](CCCCN)C(=O)NCC(=O)N[C@H](C(=O)N[C@H](C(=O)N[C@@H](CO)C(=O)N[C@@H](C)C(=O)N[C@H](C(=O)N[C@@H](C)C(=O)NCC(=O)N[C@@H](C)C(=O)N[C@@H](CC(C)C)C(=O)N[C@H](C(=O)N[C@@H](CCC(N)=O)C(=O)O)[C@@H](C)O)C(C)C)[C@@H](C)CC)C(C)C)C(C)C)[C@@H](C)O)C(C)C)[C@@H](C)CC [IKIPAFVKDTLKKVAKGVISAVAGALTQ]					20 µM (≈ 57.4 µg/mL)		MIC [11]: ≥ 80 µM; MIC [12]: 20 µM (≈ 57.4 µg/mL); MIC [13]: 20 µM (≈ 57.4 µg/mL); MIC [14]: 20 µM (≈ 57.4 µg/mL)
CC[C@H](C)[C@H](N)C(=O)N[C@@H](CCCCN)C(=O)N[C@H](C(=O)N1CCC[C@H]1C(=O)N1CCC[C@H]1C(=O)N[C@H](C(=O)N[C@H](C(=O)N[C@@H](CCCCN)C(=O)N[C@@H](CC(=O)O)C(=O)N[C@H](C(=O)N[C@@H](CC(C)C)C(=O)N[C@@H](CCCCN)C(=O)N[C@@H](CCCCN)C(=O)N[C@H](C(=O)N[C@@H](C)C(=O)N[C@@H](CCCCN)C(=O)NCC(=O)N[C@H](C(=O)N[C@@H](CC(C)C)C(=O)N[C@@H](CO)C(=O)N[C@H](C(=O)N[C@H](C(=O)N[C@@H](C)C(=O)NCC(=O)N[C@@H](C)C(=O)N[C@@H](CC(C)C)C(=O)N[C@@H](CO)C(=O)N[C@H](C(=O)O)[C@@H](C)O)[C@@H](C)CC)[C@@H](C)O)C(C)C)C(C)C)[C@@H](C)O)C(C)C)[C@@H](C)CC)[C@@H](C)CC [IKIPPIVKDTLKKVAKGVLSTIAGALST]					80 µM (≈ 229 µg/mL)		MIC [11]: ≥ 160 µM; MIC [14]: ≥ 40 µM
CC[C@H](C)[C@H](N)C(=O)N[C@@H](CCCN=C(N)N)C(=O)N[C@H](C(=O)N[C@@H](CCCN=C(N)N)C(=O)N[C@H](C(=O)N[C@@H](CCCN=C(N)N)C(=O)N1CCC[C@H]1C(=O)N[C@H](C(=O)N[C@@H](CCCN=C(N)N)C(=O)N[C@H](C(=O)N[C@@H](CCCN=C(N)N)C(=O)N[C@H](C(=O)N[C@@H](CCCN=C(N)N)C(=O)N1CCC[C@H]1C(=O)O)[C@@H](C)CC)[C@@H](C)CC)[C@@H](C)CC)[C@@H](C)CC)[C@@H](C)CC [IRIRIRPIRIRIRP]		16 µM (≈ 29.3 µg/mL)	8 µM (≈ 14.6 µg/mL)	> 128 µM	64 µM (≈ 117 µg/mL)	16 µM (≈ 29.3 µg/mL)	MIC [15]: 64 µM (≈ 117 µg/mL); MIC [13]: 8 µM (≈ 14.6 µg/mL)
CC(C)C[C@H](NC(=O)[C@H](Cc1c[nH]c2ccccc12)NC(=O)[C@H](CCCCN)NC(=O)[C@H](CCCN=C(N)N)NC(=O)[C@@H](NC(=O)[C@H](Cc1c[nH]c2ccccc12)NC(=O)[C@H](CCCCN)NC(=O)[C@H](CCCN=C(N)N)NC(=O)[C@H](CC(C)C)NC(=O)[C@H](Cc1c[nH]c2ccccc12)NC(=O)[C@@H](N)CCCN=C(N)N)[C@@H](C)O)C(=O)N[C@@H](CCCCN)C(N)=O [RWLRKWTRKWLK]			4 µM (≈ 7.02 µg/mL)	8 µM (≈ 14 µg/mL)	16 µM (≈ 28.1 µg/mL)	16 µM (≈ 28.1 µg/mL)	MIC [8]: 8 µM (≈ 14 µg/mL); MIC [9]: 4 µM (≈ 7.02 µg/mL)

Continued, in another order:

MIC [2]	MIC [3]	MIC (Escherichia coli UB1005)	MIC [6]	MIC [7]	MIC [10]	Compound	other results
18 µM (≈ 50 µg/mL)	35.9 µM (≈ 99.9 µg/mL)					CC[C@H](C)[C@@H]1NC(=O)[C@H](CCCCN)NC(=O)[C@@H](NC(=O)[C@@H](NC(=O)[C@@H](NC(=O)[C@@H](NC(=O)[C@@H]2CCCN2C(=O)[C@H](CC(C)C)NC(=O)[C@H](Cc2ccccc2)NC(=O)[C@H](CCCCN)NC(=O)[C@H](C)NC(=O)[C@H](C)NC(=O)[C@H](CC(C)C)NC(=O)[C@H](CCCCN)NC(=O)[C@H](CCCCN)NC(=O)[C@H](CC(C)C)NC(=O)[C@H](CC(C)C)NC(=O)[C@H](CCCCN)NC(=O)[C@H](CC(C)C)NC(=O)[C@@H](N)Cc2ccccc2)[C@@H](C)O)[C@@H](C)CC)[C@@H](C)CC)CSSC[C@@H](C(=O)O)NC(=O)[C@H](CCCCN)NC(=O)[C@H](Cc2ccc(O)cc2)NC(=O)[C@H](CO)NC1=O [FLKLLKKLAAKFLPTIICKISYKC]	MIC [1]: ≥ 35.9 µM
	5 µM and 10 µM					CC[C@H](C)[C@H](NC(=O)CNC(=O)[C@H](CO)NC(=O)[C@H](CC(C)C)NC(=O)[C@@H](NC(=O)[C@H](CCCN=C(N)N)NC(=O)CNC(=O)[C@@H](NC(=O)[C@H](CC(C)C)NC(=O)[C@@H]1CCCN1C(=O)[C@H](CC(C)C)NC(=O)[C@@H](N)Cc1ccccc1)[C@@H](C)CC)C(C)C)C(=O)N[C@@H](CC(C)C)C(=O)NCC(=O)N[C@@H](Cc1c[nH]c2ccccc12)C(=O)N[C@@H](CCCCN)C(=O)N[C@@H](CCCN=C(N)N)C(=O)N[C@@H](CCCCN)C(=O)N[C@@H](CCCN=C(N)N)C(=O)N[C@@H](Cc1ccccc1)C(=O)NCC(N)=O [FLPLIGRVLSGILGWKRKRFG]	MIC [4]: 10 µM (≈ 24.1 µg/mL); MIC [5]: 4 µM and 8 µM
		4 µM (≈ 11.7 µg/mL)	2 µM (≈ 5.84 µg/mL)	4 µM (≈ 11.7 µg/mL)	4 µM (≈ 11.7 µg/mL)	CC[C@H](C)[C@H](NC(=O)[C@H](Cc1c[nH]c2ccccc12)NC(=O)[C@H](CCCCN)NC(=O)[C@H](CC(C)C)NC(=O)[C@@H](NC(=O)[C@H](CCCCN)NC(=O)CNC(=O)[C@@H](NC(=O)[C@H](CCCCN)NC(=O)[C@H](CCCCN)NC(=O)[C@H](CC(C)C)NC(=O)[C@@H](NC(=O)[C@H](CCCCN)NC(=O)[C@H](CCCN=C(N)N)NC(=O)[C@@H](NC(=O)[C@@H](NC(=O)[C@H](CCCCN)NC(=O)[C@H](CCCN=C(N)N)NC(=O)[C@H](CC(C)C)NC(=O)[C@H](CCCN=C(N)N)NC(=O)[C@H](CCCN=C(N)N)NC(=O)[C@H](Cc1ccccc1)NC(=O)[C@@H](NC(=O)CN)C(C)C)C(C)C)[C@@H](C)O)C(C)C)[C@@H](C)CC)C(C)C)C(N)=O [GVFRRLRKVTRKVLKKIGKVLKWI]	MIC [8]: 4 µM (≈ 11.7 µg/mL); MIC [9]: 4 µM (≈ 11.7 µg/mL)
				> 30 µM		CC(C)C[C@H](NC(=O)[C@H](CCCN=C(N)N)NC(=O)[C@H](C)NC(=O)[C@H](C)NC(=O)[C@H](Cc1c[nH]c2ccccc12)NC(=O)CNC(=O)[C@H](CCCN=C(N)N)NC(=O)[C@@H](N)CCCN=C(N)N)C(=O)N[C@@H](Cc1ccccc1)C(=O)N[C@@H](C)C(=O)N[C@@H](C)C(=O)N[C@@H](Cc1ccccc1)C(=O)NCC(=O)N[C@@H](CCCN=C(N)N)C(=O)N[C@@H](CCCN=C(N)N)C(N)=O [RRGWAARLFAAFGRR]	MIC (Klebsiella pneumoniae): 1.2 µM (≈ 2.15 µg/mL); MIC (Acinetobacter baumannii): 4.8 µM (≈ 8.59 µg/mL); MIC [5]: 30 µM (≈ 53.7 µg/mL)
